Assay results: ChEMBL document CHEMBL3045093, “Synthesis, spectral correlation and insect antifeedant activities of some 2-benzimidazole chalcones” (J Saudi Chem Soc, 2013)
Active and inactive are the calls of the source. The calls are words filed in the database; no cut-off is given here.

system: Achaea janata; assay: Antifeedant activity against 4th instar larvae of Achaea janata in […] leaves assessed as total leaf disc consumed at 150 ppm after 24 hrs by leaf disc bioassay; assay type: functional, organism-based

SMILES | Activity
O=C(/C=C/c1ccc(Br)cc1)c1nc2ccccc2[nH]1 | Active

system: Achaea janata; assay: Antifeedant activity against 4th instar larvae of Achaea janata in […] leaves assessed as total leaf disc consumed at 200 ppm after 24 hrs by leaf disc bioassay; assay type: functional, organism-based

SMILES | Activity
O=C(/C=C/c1ccccc1[N+](=O)[O-])c1nc2ccccc2[nH]1 | Active
O=C(/C=C/c1ccccc1Br)c1nc2ccccc2[nH]1 | Active
O=C(/C=C/c1ccc([N+](=O)[O-])cc1)c1nc2ccccc2[nH]1 | Active
Cc1cccc(/C=C/C(=O)c2nc3ccccc3[nH]2)c1 | Active
CN(C)c1ccc(/C=C/C(=O)c2nc3ccccc3[nH]2)cc1 | Active
O=C(/C=C/c1ccc(F)cc1)c1nc2ccccc2[nH]1 | Active
O=C(/C=C/c1cccc(Cl)c1)c1nc2ccccc2[nH]1 | Active
COc1cccc(/C=C/C(=O)c2nc3ccccc3[nH]2)c1 | Active
O=C(/C=C/c1ccc(O)cc1)c1nc2ccccc2[nH]1 | Active
Cc1ccc(/C=C/C(=O)c2nc3ccccc3[nH]2)cc1 | Active
COc1ccc(/C=C/C(=O)c2nc3ccccc3[nH]2)cc1 | Active
O=C(/C=C/c1ccccc1O)c1nc2ccccc2[nH]1 | Active
COc1ccccc1/C=C/C(=O)c1nc2ccccc2[nH]1 | Active
O=C(/C=C/c1ccccc1Cl)c1nc2ccccc2[nH]1 | Active
O=C(/C=C/c1ccc(Br)cc1)c1nc2ccccc2[nH]1 | Active
O=C(/C=C/c1ccccc1)c1nc2ccccc2[nH]1 | Active
O=C(/C=C/c1ccc(Cl)cc1)c1nc2ccccc2[nH]1 | Active
O=C(/C=C/c1cccc(Br)c1)c1nc2ccccc2[nH]1 | Active
O=C(/C=C/c1cccc(O)c1)c1nc2ccccc2[nH]1 | Active
Cc1ccccc1/C=C/C(=O)c1nc2ccccc2[nH]1 | Active
O=C(/C=C/c1cccc([N+](=O)[O-])c1)c1nc2ccccc2[nH]1 | Active
